Measurements reported in patent US7348152B2, “Rhamnose binding protein” (Solbec Pharmaceutical Limited, priority 2002, dated 2008).

Tests used:
[1] = test system: rhamnose binding protein (RBP); assay: Dissociation constant of the receptor estimated from the cytotoxicity functions; details: read-out: dissociation constant of RBP when bound to the rhamnose moiety of solamargine
Protocol: Given that the evaluation of the cytotoxicities for different cell lines needed to be conducted using different sized cell populations, it was considered prudent to determine the effect, if any, of cell number on the measured value of LD50. Five cell lines, HT-29, LS174-T, 5637, A431 and MCF-7 were evaluated at four different seeding cell densities. Hs578T and CCD 18Lu were evaluated at three seeding densities and Hs578Bst, both early and late passage cells, were evaluated at two seeding densities.
In order that the full range of cell densities be evaluated with at least one cell line, a 3-day version of the cytotoxicity was developed. The cell lines involved were recalibtrated for the 3-day format. Multiwell plates were seeded on day 1. Cells were treated with BEC® on day 2 and MTT was added twenty four hours later.
Comparing the two fitted functions, two distinct regions are discernable (FIG. 8). […] We estimate that the dissociation constant for this receptor is likely to be of the order of 1.5×10^−6 M.

[2] = test system: A2058 cells; assay: Staining of cells with fluorescein tagged rhamnose probe (FRITC); type: cell-based
Protocol: A2058 cells were coated at low density in a microscope compatible chamber. The cells were washed with HBS^2+ then incubated with FRITC (top concentration of DMSO=2.5%) for 5-15 min at 37° C. The FRITC was removed, the cells washed twice with HBS^2+ and examined under a visible light microscope. The incubation was repeated with 0-100 μM fluorescein-amine, and for 25 and 6 μM FRITC using a 10^3× excess of unlabelled rhamnose.
A fluorescein tagged rhamnose probe (FRITC) was prepared as previously described and used to stain A2058 cells.
FRITC at concentrations from 3-25 μM was incubated with A2058 cells for 15 minutes at 37° C.

[3] = test system: RBP bearing cells; assay: Cell adhesion between RBP bearing cells; type: cell-based; details: RBP binds ligand
[4] = test system: A2058 cells; assay: Co-administration of BEC® and rhamnose, cell survival; type: cell-based; details: 5 mM rhamnose, 5000 cells, 5 minutes and 4 days
Protocol: A2058 cells at two different cell densities were treated with BEC® +/−rhamnose and cell survival was monitored after 4 days. The treatments comprised: (i) BEC® only for 4 days (ii) BEC® only for 5 minutes (iii) BEC® and 5 mM rhamnose for 4 days and (iv) BEC® and 5 mM rhamnose for 5 minutes.

C[C@@H]1CC[C@@]2(NC1)O[C@H]1C[C@H]3[C@@H]4CC=C5C[C@@H](O[C@@H]6O[C@H](CO)[C@@H](O[C@@H]7O[C@@H](C)[C@H](O)[C@@H](O)[C@H]7O)[C@H](O)[C@H]6O[C@@H]6O[C@@H](C)[C@H](O)[C@@H](O)[C@H]6O)CC[C@]5(C)[C@H]4CC[C@]3(C)[C@H]1[C@@H]2C [solamargine]
Kd [1]: ~1500 nM

Fluorescein Rhamnose-ITC [FRITC]
fluorescent staining of cells ([2]; FRITC 3-25 μM, 15 minutes at 37° C.): found to fluoresce

C[C@H](O)[C@H](O)[C@@H](O)[C@@H](O)C=O [rhamnose]
cell adhesion of RBP bearing cells [3]: inhibited
rhamnose competition with BEC® uptake (protective effect) [4]: affects the amount of BEC® taken up by the cells
inhibition of FRITC staining ([2]; co-incubation with free rhamnose at 10 mM): staining could be inhibited
